{"source": "patent US6605730B2", "about": "“Intermediates for nematicidal pyrazoles” (priority 1998, dated 2003)", "key": {"[1]": {"system": "southern root-knot nematodes", "test": "Test on root-knot nematodes (soil pot test, tomato)", "type": "in vivo", "conditions": "active ingredient 50 ppm in infested soil; tomato plants; after 4 weeks", "description": "Fine granular formulations were prepared by impregnating 99 parts of pumice with 1 part each of active compounds.\nEach of the active compounds prepared in the above-described manner was added to soil infested with southern root-knot nematodes so as to give an active ingredient concentration of 50 ppm, and intimately blended therein. This soil was charged into pots having an area of 1/5000 are, and about 20 tomato seeds (of the Kurihara variety) were sown in each pot. Tomato plants were grown in a greenhouse and, after 4 weeks, extracted so as not to injure their roots. Then, the root knot index and the controlling effect for each active compound were determined in the following manner.\n0: No knot was formed (perfectly controlled).\n1: Knots were formed to a slight degree.\n2: Knots were formed to a moderate degree.\n3: Knots were formed to a heavy degree.\n4: Knots were formed to the heaviest degree (corresponding to no treatment). [formula]\nAccording to the value of the controlling effect, the effectiveness was rated on the following basis.\na: The controlling effect was in the range of 100 to 71%.\nb: The controlling effect was in the range of 70 to 50%.\nc: The controlling effect was less than 50%.\nd: The controlling effect was 0%."}, "Meloidogyne incognita [2]": {"system": "Meloidogyne incognita", "test": "Meloidogyne test (Test Example 6, infected soil, lettuce)", "type": "in vivo", "conditions": "active compound concentration 20 ppm, lettuce root galls", "description": "(§1) Test nematode: Meloidogyne incognita\nSolvent: 31 parts by weight of acetone\n(§2) Emulsifier: 1 part by weight of alkylaryl polyglycol ether\n(§3) To produce a suitable preparation of active compound, 1 part by weight of active compound is mixed with the stated amount of solvent and the stated amount of emulsifier is added and the concentrate is diluted with water to the desired concentration.\n(§4) The active compound preparation is intimately mixed with soil which is heavily infected with the test nematodes. The treated soil is transferred into pots, lettuce seeds are sown and the pots are kept in the greenhouse.\n(§5) After the desired time the lettuce roots are checked for infestation with nematodes (root galls) and the efficacy of the active compound in % is determined. The efficacy is 100% when infestation is avoided completely and 0% when infestation level is just as high as in the control plants in untreated but equally infested soil."}, "Meloidogyne incognita [3]": {"system": "Meloidogyne incognita", "test": "Meloidogyne test (Test Example 5, infected soil, lettuce)", "type": "in vivo", "conditions": "active compound concentration 5 ppm; lettuce root galls", "description": "as §1\nSolvent: 4 parts by weight of acetone\nas §2, §3, §4, §5"}, "[4]": {"system": "Nippostrongylus brasiliensis adult worms", "test": "Test on Nippostrongylus brasiliensis, Lane, adult (acetylcholine esterase activity of incubation medium)", "type": "in vivo", "conditions": "100 μg/ml", "description": "The method was carried out, in accordance with a method described in Parasitol. Res., vol. 73 (1987) 191, Rapson, E. B. et al. N.brasiliensis adult worms are isolated from the small intestine of female Wister rats and in sodium chloride solution ([…]) supplemented with Canesten (2 mg/l) and Sisomycin (20 mg/l). Worms (five male and five female) were incubated, according to the method of Rapson et al, and the incubation medium was adjusted so as to give final concentrations of 100 μg/ml. The resulting incubation medium was for acetylcholine esterase activity, as performed by Rapso et al. using a scale 0-3 where 0=no activity (<50% enzyme inhibition) and 1, 2 and 3 weak, good and full activity (50-75, >75 and 100% enzyme inhibition, respectively)."}, "[5]": {"system": "Trichinella spiralis larvae", "test": "Test on Trichinella spiralis, Owen, larvae", "type": "in vivo", "conditions": "100 μg/ml; incubated at 19° C. for five days", "description": "The method was carried out, in accordance with a method described in Tropenmed. Parasitol., vol. 32 (1981), 31-34, Jenkins, D. C., and Carrington, T. S. T. spiralis larvae were isolated from skeletal muscles and diaphragms of SPF/CFW1 mice and stored in sodium chloride solution ([…]) supplemented with Canested (20 μg/ml). The larvae (20 per estimation) were incubated in 2 ml of a solution with the following composition: Casitone 20; yeast extract 10; glucose 5; potassium dihydrogen phosphate 0.8; dipotassium hydrogen phosphate 0.8 g/l in water (500 ml; pH 7.2) and supplemented with Sisomycin (10 mg/l) and Canesten (1 mg/l).\nThe test compound (10 mg) was dissolved in dimethylsulfoxide (0.5 ml) and added to the incubation medium containing the larvae to give final concentrations of 100 μg/ml. The mixture was incubated at 19° C. for five days, after which activity was assessed according to Jenkins and Carrington a scale 1-3 where 1=weak activity (fewer live larvae than in the untreated control); 2=good activity (>=50% more dead larvae than in the untreated control) and 3=full activity (all larvae dead)."}}, "data": [{"molecule": "1-acetyl-3-(4-chlorophenyl)-5-(2-thienyl)-1H-pyrazole and 1-acetyl-3-(2-thienyl)-5-(4-chlorophenyl)-1H-pyrazole [Compound 58]", "values": [{"measurement": "Evaluation (controlling effect from root knot index)", "setting": "[1]", "value": "a (The controlling effect was in the range of 100 to 71%.)"}]}, {"molecule": "c1ccc(-c2cc(-c3cccs3)n[nH]2)cc1", "note": "[compound 1, 3-(2-Thienyl)-5-phenyl-1H-pyrazole, reference compound]", "values": [{"measurement": "Evaluation (controlling effect from root knot index)", "setting": "[1]", "value": "c (The controlling effect was less than 50%.)"}]}, {"molecule": "Clc1ccc(-c2cc(-c3cccs3)[nH]n2)cc1", "note": "[Compound 7, 3-(4-chlorophenyl)-5-(2-thienyl)-1H-pyrazole]", "values": [{"measurement": "Evaluation (controlling effect from root knot index)", "setting": "[1]", "value": "a (The controlling effect was in the range of 100 to 71%.)"}, {"measurement": "melting point", "value": 217, "unit": "°C"}]}, {"molecule": "CCc1ccc(-c2cc(-c3cccs3)[nH]n2)cc1", "note": "[Compound 11]", "values": [{"measurement": "Evaluation (controlling effect from root knot index)", "setting": "[1]", "value": "a (The controlling effect was in the range of 100 to 71%.)"}]}, {"molecule": "FC(F)(F)Oc1ccc(-c2cc(-c3cccs3)[nH]n2)cc1", "note": "[Compound 26]", "values": [{"measurement": "Evaluation (controlling effect from root knot index)", "setting": "[1]", "value": "a (The controlling effect was in the range of 100 to 71%.)"}]}, {"molecule": "Fc1cccc(F)c1-c1cc(-c2cccs2)[nH]n1", "values": [{"measurement": "kill in % after 14 d", "setting": "Meloidogyne incognita [2]", "value": 100, "unit": "%"}]}, {"molecule": "COc1ccc(-c2cc(-c3cccs3)n[nH]2)cc1", "note": "[compound 2, 3-(2-Thienyl)-5-(4-methoxyphenyl)-1H-pyrazole, reference compound]", "values": [{"measurement": "Evaluation (controlling effect from root knot index)", "setting": "[1]", "value": "d (The controlling effect was 0%.)"}]}, {"molecule": "CC(C)(C)c1ccc(-c2cc(-c3cccs3)[nH]n2)cc1", "values": [{"measurement": "melting point", "value": "61 to 65", "unit": "°C"}]}, {"molecule": "CCCc1c(-c2ccc(Cl)cc2)n[nH]c1-c1cccs1", "values": [{"measurement": "melting point", "value": "129 to 132", "unit": "°C"}]}, {"molecule": "C=C(C)C(=O)n1nc(-c2ccc(Cl)cc2)cc1-c1cccs1", "values": [{"measurement": "kill (%)", "setting": "Meloidogyne incognita [3]", "value": 100, "unit": "%"}]}, {"molecule": "CCc1c(-c2ccc(Cl)cc2)n[nH]c1-c1cccs1", "note": "[Compound 46]", "values": [{"measurement": "Evalution (acetylcholine esterase inhibition, scale 0-3)", "setting": "[4]", "value": "3 (1, 2 and 3 weak, good and full activity (50-75, >75 and 100% enzyme inhibition, respectively))"}, {"measurement": "Evolution (activity, scale 1-3)", "setting": "[5]", "value": "2 (2=good activity (>=50% more dead larvae than in the untreated control))"}]}, {"molecule": "Fc1ccc(-c2cc(-c3cccs3)[nH]n2)cc1", "note": "[Compound 6, 3-(4-fluorophenyl)-5-(2-thienyl)-1H-pyrazole]", "values": [{"measurement": "Evalution (acetylcholine esterase inhibition, scale 0-3)", "setting": "[4]", "value": "3 (1, 2 and 3 weak, good and full activity (50-75, >75 and 100% enzyme inhibition, respectively))"}, {"measurement": "Evaluation (controlling effect from root knot index)", "setting": "[1]", "value": "a (The controlling effect was in the range of 100 to 71%.)"}, {"measurement": "Evolution (activity, scale 1-3)", "setting": "[5]", "value": "2 (2=good activity (>=50% more dead larvae than in the untreated control))"}]}, {"molecule": "Ic1ccc(-c2cc(-c3cccs3)[nH]n2)cc1", "note": "[Compound 9]", "values": [{"measurement": "Evalution (acetylcholine esterase inhibition, scale 0-3)", "setting": "[4]", "value": "3 (1, 2 and 3 weak, good and full activity (50-75, >75 and 100% enzyme inhibition, respectively))"}, {"measurement": "Evaluation (controlling effect from root knot index)", "setting": "[1]", "value": "a (The controlling effect was in the range of 100 to 71%.)"}]}, {"molecule": "CSCc1c(-c2ccc(Cl)cc2)n[nH]c1-c1cccs1", "note": "[Compound 49, 3-(4-Chlorophenyl)-4-methylmercaptomethyl-5-(2-thienyl)-1H-pyrazole]", "values": [{"measurement": "Evalution (acetylcholine esterase inhibition, scale 0-3)", "setting": "[4]", "value": "3 (1, 2 and 3 weak, good and full activity (50-75, >75 and 100% enzyme inhibition, respectively))"}, {"measurement": "Evolution (activity, scale 1-3)", "setting": "[5]", "value": "2 (2=good activity (>=50% more dead larvae than in the untreated control))"}]}]}
